Experimental data from patent publication US5264432A, “5-(1-aminoacyl)-5,10-dihydro-11H-dibenzo[b,e](1,4)diazepin-11-ones” (Arzneimittelwerk Dresden G.m.b.H, priority 1989, dated 1993).
Where a name gives a salt, the structure may show the parent alone. Read-outs that look alike come from different tables or passages of the source.

Key:
[1] = tested on: dogs, 24 hours after a two-step coronary ligature; experiment: two-step coronary ligature on the dog (Harris model); format: in vivo; conditions: for ectopic contractions in percent/min. / total number of heart contractions/min.: average value; for effective action in minutes (duration of action), Harris dog: i.v. at the effective dose, dogs, 24 hours after two-step coronary ligature
Description: Dose is the effective dose in mg/kg, as well as the duration of action in minutes in dogs, 24 hours after a two-step coronary ligature.

in vivo = conditions: rat, iv, i.v. tail vein, Wistar rats, parentheses = confidence interval p=0.05, read-out: LD50 i.v., acute toxicity of the rat
Description: The data were analyzed by the Probit regression analysis with a confidence interval of p=0.05 (values in parentheses).

[2] = tested on: CaCl2 arrhythmia of the rat; experiment: CaCl2 arrhythmia of the rat (antifibrillatory effect); conditions: ratio LD50 iv./ED50 iv.
Description: The data is analyzed by the Probit regression analysis with a confidence interval of p=0.05 (values in parentheses).
Q is the ratio of LD50 iv. /ED50 iv. to determine therapeutic breadth range.

[3] = tested on: dogs, 24 hours after a two-step coronary ligature; conditions: quinidine, cited from earlier work

Molecule	ectopic contractions in percent/min. ([1]; 5 mins, 0.005 mmol/kg)	ectopic contractions in percent/min. ([1]; 30 mins, 0.005 mmol/kg)	ectopic contractions in percent/min. ([1]; 60 mins, 0.005 mmol/kg)	ectopic contractions in percent/min. ([1]; 120 mins, 0.005 mmol/kg)	effective action in minutes (duration of action), Harris dog [1]	LD50 (in vivo)	Q = LD50/ED50 (therapeutic breadth) [2]	other results
5-(4-Diethylamino-butyryl)-5,10-dihydro-11H-dibenzo(b,e)(1,4)-diazepine-11- one [Example 2]	26 percent/min.	24 percent/min.	75 percent/min.	90 percent/min.	–	–	–	ectopic contractions in percent/min. ([1]; base, 0.005 mmol/kg): 88 percent/min.
CCN(CC)CC(=O)Nc1c(C)cccc1C [Lidocaine, reference compound]	–	–	–	–	15 min	–	–	ectopic contractions in percent/min. ([1]; 5 mins, 0.02 mmol/kg (5.4 mg/kg)): 34 percent/min.; ectopic contractions in percent/min. ([1]; 30 mins, 0.02 mmol/kg (5.4 mg/kg)): 78 percent/min.; ectopic arrhythmia / ectopy rate (in words) ([1]; dog, Harris): decrease in the ectopic arrhythmia; total number of heart contractions (in words) ([1]; dog, Harris): decrease in the total number of heart contractions
O=C1Nc2cc(Cl)ccc2N(C(=O)CCCCCCN2CCOCC2)c2ccccc21 [Example 9, 8-Chloro-5-(7-N-morpholino-enanthoyl)-5,10-dihydro-11H-dibenzo(b,e)(1,4)-diazepine-11-one]	21 percent/min.	38 percent/min.	42 percent/min.	42 percent/min.	120 min	41 mg/kg	256	total number of heart contractions/min. ([1]; 120 mins., 0.005 mmol/kg): 156 min⁻¹; ectopic contractions in percent/min. ([1]; 180 mins, 0.005 mmol/kg): 73 percent/min.; ectopic contractions in percent/min. ([1]; 300 mins, 0.005 mmol/kg): 79 percent/min.; total number of heart contractions/min. ([1]; 360 mins., 0.005 mmol/kg): 180 min⁻¹; ectopic contractions in percent/min. ([1]; 360 mins, 0.005 mmol/kg): 89 percent/min.
CCN(CC)CCCCCC(=O)N1c2ccc(Cl)cc2NC(=O)c2ccccc21 [Example 6, 8-Chloro-5-(6-diethylamino-capronyl)-5,10-dihydro-11H-dibenzo(b,e)(1,4)-diazepine-11-one]	20 percent/min.	4 percent/min.	37 percent/min.	76 percent/min.	60 min	38 mg/kg	86	total number of heart contractions/min. ([1]; 5 mins., 0.005 mmol/kg): 170 min⁻¹
CCN(CC)CCCC(=O)N1c2ccc(Cl)cc2NC(=O)c2ccccc21 [Example 4, 8-Chloro-5-(4-diethylamino-butyryl)-5,10-dihydro-11H-dibenzo(b,e)(1,4)-diazepine-11-one]	–	–	–	–	30 min	71 mg/kg	1614	total number of heart contractions/min. ([1]; 30 mins., 0.005 mmol/kg): 180 min⁻¹; total number of heart contractions/min. ([1]; 120 mins., 0.005 mmol/kg): 183 min⁻¹
CN(C)CCCCCC(=O)N1c2ccccc2NC(=O)c2ccccc21 [Example 1, 5-(6-Dimethylamino-capronyl)-5,10-dihydro-11H-dibenzo(b,e)(1,4)-diazepine-11-one.HCl]	30 percent/min.	47 percent/min.	54 percent/min.	68 percent/min.	60 min	85 mg/kg	207	ectopic contractions in percent/min. ([1]; 180 mins, 0.005 mmol/kg): 80 percent/min.
C=C[C@H]1C[N@@]2CC[C@H]1C[C@@H]2[C@@H](O)c1ccnc2ccc(OC)cc12 [Quinidine]	–	–	–	–	–	–	–	Harris dog effective dose ([3]; i.v., reference [1] Mokler and Arman 1962): 10.0 mg/kg; effective action in minutes (duration of action), Harris dog ([3]; i.v., reference [1]): 15 min; ectopic arrhythmia (in words) ([3]; reference [1]): decrease in the ectopic arrhythmia; total number of heart contractions (in words) ([3]; reference [1]): decrease in the total number of heart contractions
